Measured values reported in US20260091147A1, “METHOD FOR DETECTING INNATE IMMUNE ACTION IN VIVO USING GPR84-PET” (The Board of Trustees of the Leland Standford Junior …, priority 2023, published 2026).
Where “and” joins values, the source holds several entries; their conditions need not be identical. Equal entries are not always repeated.

Columns and labels:
GPR84 [1] = molecular target: T1, GPR84 (Homo sapiens, UniProt Q9NQS5); assay: Radiotracer cell binding, hGPR84-HEK-293 vs control HEK-293 cells, with or without GLPG1205 block; assay type: cell-based; set-up: host or cells: HEK-293 cells, lentivirally transduced, puromycin-selected monoclonal line; settings: for fold higher binding to hGPR84-HEK-293 cells vs control cells: 40 min incubation; for reduction of tracer binding in hGPR84-HEK293 cells by GLPG1205: co-incubation with GLPG1205 35 μM (1000× by mass), 40 min
Method: GPR84-transduced HEK-293 cells and control HEK-293 cells were plated at a concentration of 3×10^5 cells per well in media (DMEM with 10% FBS and 1% anti-anti) into three 12-well plates 16-24 hr prior to the cell binding assay. Once cells reached ˜90% confluency, the radiotracer was prepared. […] The radiotracer was diluted in DMEM without FBS or antibiotic to yield a 30 mL solution where the amount of activity was 25 μCi in 500 μL. The first 12-well plate was incubated for 20 minutes at 37° C. and 5% CO2 in air while the next was incubated for 40 minutes at the same conditions. Cells were subsequently washed with PBS, trypsinized, resuspended in DMEM+10% FBS, and pipetted into gamma counting tubes at 500 μL volume. Radioactivity levels bound to cells were measured in a gamma counter (Hidex Oy, Helsinki, Finland), and cell counts were recorded using Trypan blue and an automatic cell counter to normalize radioactivity levels to cell count.
At the indicated time points, plates were placed on ice, washed three times with ice-cold phosphate-buffered saline (PBS), and trypsinized (150 μL per well) for 2 min at 37° C. The trypsin was neutralized by adding 600 μL DMEM containing 10% FBS (original cell culture media) to each well. […] Gamma counting was performed to quantitate percentage radiotracer uptake by the cells and decay-corrected radioactivity was determined (Hidex automated gamma counter). Finally, cells in each gamma counting tube were counted by using the Countess cell counter (Life Technologies). Cell binding was expressed in terms of % uptake/million cells.
GPR84-transduced HEK-293 cells and control HEK-293 cells from Creative Biogene were plated at a concentration of 3×10^5 cells per well in media (DMEM with 10% FBS and 1% anti-anti) into a 12-well plate for 16-24 hr. HEK-293 cells were stably transduced via the following process from Creative Biogene: construction of pLVX-CMV-Human-GPR84-PGK-Puro lentiviral expression plasmid, lentivirus production, lentivirus transduction, puromycin selection of polyclonal stable HEK293-Human-GPR84 cells, screening of monoclonal stable HEK293-Human-GPR84 cells via limited dilution, validation using qPCR, then mycoplasma detection by PCR and Lonza kit. Once cells reached ˜90% confluency, the radiotracer was prepared. The radiotracer was diluted in DMEM without FBS or antibiotic to yield a 30 mL solution such that the amount of activity was 50 μCi/mL for ^11C or 2 μCi/mL for ^18F. […] The 12-well plate was incubated for 40 min at 37° C. and 5% CO2 in air. […] Radioactivity levels bound to cells were measured in a gamma counter (Hidex Oy, Helsinki, Finland), and cell counts were recorded using Trypan blue and an automatic cell counter to normalize radioactivity levels to cell count.

[2] = Dynamic 60 min PET/CT of healthy mice, whole-brain time activity curve; assay type: in vivo, mouse
Excerpt: A transmission scan was acquired to correct for attenuation during image reconstruction. Following PET imaging, mice were transferred to a SOFIE GNEXT PET/CT for CT acquisition. PET/CT data were co-registered and analyzed using Inveon Research Workplace software to generate images and quantify radiotracer uptake in regions of interest (ROIs). A 3D ROI was manually defined for the whole brain using CT data as anatomical reference, then applied to the full dynamic data set to generate a time activity curve (TAC).
The count densities were averaged for all volumes of interest at each time point to obtain a time-activity curve (TAC). The TACs were normalized to injected dose, as measured by a CRC-15 PET dose calibrator (Capintec Inc.), and expressed as % injected dose per gram (% ID/g), assuming 1 g/mL. CT was performed in GNEXT depth of interaction (DOI) dual-layer detector system. Scintica VivoQuant software was used to visualize radiotracer uptake and define the 3D volumes of interest. 3D maximum intensity projection (MIP) PET/CT images were created using IRW software.
On days 15-16 after EAE induction, mice were catheterized and placed on the 4-mouse scanning bed of the Sofie GNEXT PET/CT scanner.

GPR84 [3] = molecular target: T1, GPR84; assay: In vitro autoradiography of human colon sections, active UC vs healthy; assay type: binding; set-up: from tissue; host or cells: human colon sections, active ulcerative colitis and matched healthy samples; settings: for tracer binding in active UC colon tissue vs matched healthy samples: 5 μm sections; for tracer signal in UC colon tissue after pre-blocking with GLPG1205: 1000× GLPG1205 by mass
Method: To investigate alterations in GPR84 mRNA expression under pro-inflammatory conditions, quantitative polymerase-chain reaction was performed using mouse brain and human monocyte-derived macrophage cells (hMDMs) treated with lipopolysaccharides (LPS) 24 hr prior to RNA extraction. [^11C]GLPG38 and [^18F]MGX-110S were made via [^11C]methylation of the desmethyl precursor and by copper mediated [^18F]fluorination of Bpin precursor respectively. Binding specificities of both tracers were assessed using human GPR84-stably-expressing human embryonic kidney cells (HEK-293) versus control HEK-293 cells. [^11C]GLPG38 binding was also assessed in hMDMs+/−treatment with LPS. Dynamic PET/CT imaging of healthy mice was commenced just prior to injection of [^11C]GLPG38 (100-150 μCi) or [^18F]MGX-110S (60-120 μCi) to determine biodistribution and kinetics. In vitro autoradiography (ARG) of human colon sections (5 μm) was conducted to test the ability of each tracer to detect innate immune activation in active UC.

T1 sequence (Q9NQS5 whole entry): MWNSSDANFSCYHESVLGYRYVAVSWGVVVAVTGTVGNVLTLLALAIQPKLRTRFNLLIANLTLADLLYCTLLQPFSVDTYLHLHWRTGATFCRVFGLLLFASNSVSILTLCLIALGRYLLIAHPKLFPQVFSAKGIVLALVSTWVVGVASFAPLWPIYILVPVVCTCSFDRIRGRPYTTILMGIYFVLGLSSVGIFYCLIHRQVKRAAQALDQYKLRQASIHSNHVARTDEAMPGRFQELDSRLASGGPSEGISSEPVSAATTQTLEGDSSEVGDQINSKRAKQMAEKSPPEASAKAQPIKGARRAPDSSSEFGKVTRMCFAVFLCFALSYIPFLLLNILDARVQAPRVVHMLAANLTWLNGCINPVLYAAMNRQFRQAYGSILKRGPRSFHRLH

Q: For `O=c1nc(OC[C@@H]2COCCO2)cc2n1CCc1cc([18F])ccc1-2` [^18F-MGX-110S], which “fold higher binding to hGPR84-HEK-293 cells vs control cells” value (GPR84 [1]) is on record?
A: 33.4 fold and 25 fold

Q: What about the “reduction of tracer binding in hGPR84-HEK293 cells by GLPG1205” value (GPR84 [1]) of the same compound?
A: > 90%

Q: And the “time of peak brain uptake” value ([2]; naive mice, n=3)?
A: 0.25 min

Q: What about the “tracer binding in active UC colon tissue vs matched healthy samples” value (GPR84 [3]) of the same compound?
A: marked increase of binding

Q: And the “tracer signal in UC colon tissue after pre-blocking with GLPG1205” value (GPR84 [3])?
A: markedly attenuated

Q: What does the source list for `Cc1cc2c(cc1O[11CH3])CCn1c-2c(C)c(OC[C@@H]2COCCO2)cc1=O` [[^11C]GLPG38]?
A: fold higher binding to hGPR84-HEK-293 cells vs control cells (GPR84 [1]): 13.5 fold; reduction of tracer binding in hGPR84-HEK293 cells by GLPG1205 (GPR84 [1]): 90% and > 90%; whole-brain uptake after washout, end of 60 min scan ([2]; healthy mice): 3.53 % ID/g; whole-brain uptake at 4 minutes post injection ([2]; naive wild-type mice): 9.46 % ID/g; tracer binding in active UC colon tissue vs matched healthy samples (GPR84 [3]): marked increase of binding; tracer signal in UC colon tissue after pre-blocking with GLPG1205 (GPR84 [3]): markedly attenuated
